# What was measured:
# Assay type in all cases: in vivo, mouse
# [1] = JP4-039 content of sorted esophageal SP and NSP cells (EPR); settings: 20 esophagi excised 10 minutes after intraesophageal delivery
# Description: Ten minutes after administration of JP4-039, esophagi were removed, minced, and incubated in a solution of 0.2% Collagenase type II, 0.3% Dispase and 0.025% Trypsin for 45 minutes at 37 degrees Celsius. Cell aggregates were then passed through sequentially smaller needles (to 23-gauge) and filtered with a […] cell strainer into DMEM supplemented with 40% fetal bovine serum. Suspensions were pelleted via centrifugation and resuspended at 10^6 cells/ml in pre-warmed DMEM (2% FBS, 10 mM HEPES). Cells were incubated in 6 μg/ml Hoechst 33342 for 90 minutes to identify SP cells. Verapamil, which inhibits the efflux of Hoechst, was used as a concentration of 50 μM for the purpose of cell gating. Cells were pelleted and resuspended in cold Hank's Balanced Salt Solution (HBSS) (2% FBS, 10 mM HEPES) and incubated with anti-CD45-phycoerythrin (PE)-fluorescein isothiocyanate (FITC) and/or anti-Ter119-PE-Cy7 antibodies at 1:200 dilutions, to discriminate hematopoietic cells. Antibody-treated cells were incubated on ice for 20 minutes, washed in cold HBSS, filtered, pelleted, and resuspended in cold HBSS. […] SP and NSP cells were quantified, sorted into separate collection tubes containing cold HBSS (2% FBS, 10 mM HEPES) and pelleted. […] JP4-039 content in sorted SP and NSP cells was quantified by electron paramagnetic resonance (EPR) analysis using a JEOL-RE1XEPR spectrometer. […]
# [2] = test system: GFP+ cells in the esophagus; assay: GFP+ marrow-derived cells in the irradiated esophagus (cell sorting)
# From the text: FIGS. 18A-F. Detection of GFP+ marrow-derived cells in the irradiated mouse esophagus after intravenous transplant. Mice were irradiated to 29 Gy to the esophagus on day 0, and then injected with 1×10^7 GFP+ marrow cells intravenously on day 5 according to published methods (Epperly M W, et al. Int J Cancer (Radiat Oncol Invest) 96: 221-233, 2001; Epperly M W, et al. In Vivo 19: 997-1004, 2005; and Epperly M W, et al. Protection of esophageal stem cells from ionizing irradiation by MnSOD-plasmid liposome gene therapy. In Vivo 19: 965-974, 2005). Five esophagus samples were removed from each animal in the various subgroups on days 1 (FIG. 18A), 3 (FIG. 18B), 7 (FIG. 18C), 14 (FIG. 18D), 28 (FIG. 18E) and 60 (FIG. 18F) after marrow injection. Samples of excised esophagi were prepared as single cell suspensions and then analyzed by cell […] for GFP+ cells/106 esophagus cells. Each symbol represents one esophagus.
# Bone marrow transplantation, esophageal excision and cell sorting. Five days after irradiation, the time shown to optimize marrow cell homing to the irradiated esophagus, mice received intravenous injection of 1.0×10^7 C57BL/6HNsd GFP+ male bone marrow cells prepared as single-cell suspension from donor male mice according to published methods (Niu Y, et al. Irradiated esophageal cells are protected from radiation-induced recombination by MnSOD gene therapy. Rad Res 173: 453-461, 2010 and Niu Y, et al. Intraesophageal MnSOD-plasmid liposome administration enhances engraftment and self-renewal capacity of bone marrow derived progenitors of esophageal squamous epithelium. Gene Therapy 15: 347-356, 2008). At serial time points after marrow transplantation, esophagus specimens were removed, and single cell suspensions prepared according to published methods (Id.). The esophagus cell suspensions were sorted for GFP+ cells. The number of GFP+ cells per 10^6 was calculated as described previously (Id.). (GFP+) cells were placed on slides, and stained for detection of donor cell markers (Id.).
# Statistics. In vitro data analysis and estimation of survival of mice were performed using published statistical methods (Epperly M W, et al. Radiat Res 155: 2-14, 2001). The Kruskal-Wallis test and post-hoc Mann-Whitney test were used to evaluate donor marrow cells in the esophagus as described (Niu Y, et al. Rad Res 173: 453-461, 2010). A SAS statistical program was used to perform the statistical analysis (SAS Institute, Cary, N.C., USA).
# [3] = JP4-039 uptake in normal tissue and orthotopic tumors after intraesophageal administration (EPR)
# Description: Lastly, to determine whether JP4-039 was taken up by other tissue, esophagus, lung orthotopic tumor, liver, and peripheral blood samples were taken 10, 30, and 60 minutes after intraesophageal administration of the compound. Samples were snap-frozen on dry ice and JP4-039 content was quantified by EPR analysis.
# To determine if the orally-administered JP4-039 also reached other tissues and orthotopic tumors, esophagus, peripheral blood, bone marrow, liver, and 3LL orthotopic tumors were harvested at 10, 30, and 60 minutes after intraesophageal administration of JP4-039, followed by quantification by EPR. […] JP4-039 levels in peripheral blood and orthotopic tumor peaked at 30 minutes at 51.1 and 276.0 pmol/mg protein, respectively. […] Lower levels of JP4-039 were detected in bone marrow up to 60 minutes after drug swallow compared to levels in liver and tumor tissue.
# [4] = intraesophageal, F15 formulation
smiles,measurement,setting,value
"CC(C)C[C@@H](/C=C/CC(=O)NC1CC(C)(C)N([O])C(C)(C)C1)NC(=O)OC(C)(C)C [JP4-039, TEMPO-4-yl-(S,E)-5-(tert-butoxycarbonylamino)-7-methyloct-3-enamide]",JP4-039 content of sorted SP cell pellet,"[1]; 101,00 SP cells",275.1 fmol
same,JP4-039 content of sorted NSP cells,"[1]; 3,387,00 NSP cells",221.3 fmol
same,"number of GFP+ cells per 10^6 cells in the esophagus, median (inter-quartile range)","[2]; 29 Gy + JP4-039 (after irradiation), day 1",0.5 (0-1.6) per 10^6 cells
same,"number of GFP+ cells per 10^6 cells in the esophagus, median (inter-quartile range)","[2]; 29 Gy + JP4-039 (after irradiation), day 3",1.5 (0.5-1.7) per 10^6 cells
same,"number of GFP+ cells per 10^6 cells in the esophagus, median (inter-quartile range)","[2]; 29 Gy + JP4-039 (after irradiation), day 7",0 (0-0.3) per 10^6 cells
same,"number of GFP+ cells per 10^6 cells in the esophagus, median (inter-quartile range)","[2]; 29 Gy + JP4-039 (after irradiation), day 28",0.85 (0-4.15) per 10^6 cells
same,"number of GFP+ cells per 10^6 cells in the esophagus, median (inter-quartile range)","[2]; JP4-039 + 29 Gy (before irradiation), day 1",0.9 (0.3-2.6) per 10^6 cells
same,"number of GFP+ cells per 10^6 cells in the esophagus, median (inter-quartile range)","[2]; JP4-039 + 29 Gy (before irradiation), day 3",0.3 (0-3.1) per 10^6 cells
same,"number of GFP+ cells per 10^6 cells in the esophagus, median (inter-quartile range)","[2]; JP4-039 + 29 Gy (before irradiation), day 7",0.28 (0.13-0.65) per 10^6 cells
same,"number of GFP+ cells per 10^6 cells in the esophagus, median (inter-quartile range)","[2]; JP4-039 + 29 Gy (before irradiation), day 28",0 (0-0) per 10^6 cells
same,"number of GFP+ cells per 10^6 cells in the esophagus, median (inter-quartile range)","[2]; JP4-039 + 29 Gy (before irradiation), day 60",0 (0-0) per 10^6 cells
same,time of peak level in liver,[3]; [4],10 min
same,time of peak level in orthotopic tumor,[3]; [4],30 min
same,time of peak level in peripheral blood,[3]; [4],30 min
same,peak JP4-039 level in orthotopic tumor,"[3]; intraesophageal, F15 formulation, 3LL tumor, at 30 minutes, EPR",276.0 pmol/mg protein
same,peak JP4-039 level in liver,"[3]; intraesophageal, F15 formulation, at 10 minutes, EPR",122/2
same,peak JP4-039 level in peripheral blood,"[3]; intraesophageal, F15 formulation, at 30 minutes, EPR",51.1 pmol/mg protein
same,JP4-039 level in bone marrow compared to liver and tumor tissue,[3]; up to 60 minutes after drug swallow,Lower levels

# Source: patent US20190210969A1, “INTRAESOPHAGEAL ADMINISTRATION OF TARGETED NITROXIDE AGENTS FOR PROTECTION AGAINST IONIZING IRRADIATION-INDUCED ESOPHAGITIS” (University of Pittsburgh - Of the Commonwealth System of …, priority 2010, published 2019)
